What was measured:
[1] = target: D(1A) dopamine receptor (Homo sapiens) (UniProt P21728); conditions: Compound concentration 10.0 uM
[2] = target: Sodium-dependent noradrenaline transporter (Homo sapiens) (UniProt P23975); conditions: Compound concentration 10.0 uM
[3] = target: Endothelin receptor type B (Homo sapiens) (UniProt P24530); assay: Inhibition of Endothelin ETB at 10.0 µM in the Eurofins Panlabs Safety Screen; conditions: Compound concentration 10.0 uM
[4] = target: D(2) dopamine receptor (Homo sapiens) (UniProt P14416); conditions: Compound concentration 10.0 uM
[5] = target: Nitric oxide synthase 1 (Homo sapiens) (UniProt P29475); assay: Inhibition of Nitric Oxide Synthase, Neuronal (nNOS) at 10.0 µM in the Eurofins Panlabs Safety Screen; conditions: Rattus norvegicus; Compound concentration 10.0 uM
[6] = target: 5-hydroxytryptamine receptor 2A (Homo sapiens) (UniProt P28223); conditions: Compound concentration 10.0 uM
[7] = target: Cannabinoid receptor 2 (Homo sapiens) (UniProt P34972); assay: Inhibition of Cannabinoid CB2 at 10.0 µM in the Eurofins Panlabs Safety Screen; conditions: Compound concentration 10.0 uM
[8] = target: Sigma non-opioid intracellular receptor 1 (Homo sapiens) (UniProt Q99720); conditions: Compound concentration 10.0 uM
[9] = target: Muscarinic acetylcholine receptor M3 (Homo sapiens, UniProt P20309); assay: GPCRScan assay: inhibition of M3; design: radioligand conc. used [nm] 0.3 – 1.0, parental cells stable CHO
[10] = target: Progesterone receptor (Homo sapiens) (UniProt P06401); assay: Inhibition of Progesterone PR-B at 10.0 µM in the Eurofins Panlabs Safety Screen; conditions: Compound concentration 10.0 uM
[11] = target: 5-hydroxytryptamine receptor 2A (Homo sapiens) (UniProt P28223); assay: Inhibition of Serotonin (5-Hydroxytryptamine) 5-HT2A at 10.0 µM in the Eurofins Panlabs Safety Screen; conditions: Compound concentration 10.0 uM
[12] = target: Glutamate receptor 2 (Homo sapiens) (UniProt P42262); assay: Inhibition of Glutamate, AMPA at 10.0 µM in the Eurofins Panlabs Safety Screen; conditions: Rattus norvegicus; Compound concentration 10.0 uM
[13] = target: Histamine H2 receptor (Homo sapiens) (UniProt P25021); assay: Inhibition of Histamine H2 at 10.0 µM in the Eurofins Panlabs Safety Screen; conditions: Compound concentration 10.0 uM
[14] = target: Nitric oxide synthase, inducible (Homo sapiens) (UniProt P35228); assay: Inhibition of Nitric Oxide Synthetase, Inducible (iNOS) at 10.0 µM in the Eurofins Panlabs Safety Screen; conditions: Mus musculus; Compound concentration 10.0 uM
[15] = target: GABA-A receptor; anion channel (Rattus norvegicus) (UniProt O09028+P15431+P18506+P18508+P19969+P20236+P23574+P23576+P28471+P28473+P30191+P62813+P63079+P63138+Q91ZM7+Q9ES14); assay: Inhibition of GABAA, Flunitrazepam, Central at 10.0 µM in the Eurofins Panlabs Safety Screen; assay type: protein-complex assay; conditions: Compound concentration 10.0 uM
[16] = target: Dual specificity protein kinase CLK1 (Homo sapiens) (UniProt P49759); assay: Inhibition of CLK1(h) at 10.0 µM in the Eurofins Kinase panel; conditions: Compound concentration 10.0 uM
[17] = target: T1, Muscarinic acetylcholine receptor M4 (Homo sapiens) (UniProt P08173); assay: Inhibition of Muscarinic M4 at 10.0 µM in the Eurofins Panlabs Safety Screen; conditions: Compound concentration 10.0 uM
T1 sequence (whole entry): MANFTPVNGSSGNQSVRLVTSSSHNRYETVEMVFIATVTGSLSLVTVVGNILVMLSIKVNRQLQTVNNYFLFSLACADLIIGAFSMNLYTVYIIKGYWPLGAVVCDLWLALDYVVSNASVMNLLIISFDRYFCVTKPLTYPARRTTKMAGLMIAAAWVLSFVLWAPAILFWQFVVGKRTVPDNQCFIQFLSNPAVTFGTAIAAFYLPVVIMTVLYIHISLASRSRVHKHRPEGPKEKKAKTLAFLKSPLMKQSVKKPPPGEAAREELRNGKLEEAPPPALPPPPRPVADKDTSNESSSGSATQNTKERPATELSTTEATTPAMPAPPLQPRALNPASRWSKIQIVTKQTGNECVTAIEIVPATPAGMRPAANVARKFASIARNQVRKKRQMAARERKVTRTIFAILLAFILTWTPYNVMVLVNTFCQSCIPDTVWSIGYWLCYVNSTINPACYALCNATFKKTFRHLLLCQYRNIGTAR

[18] = target: Androgen receptor (Homo sapiens) (UniProt P10275); assay: Inhibition of Androgen (Testosterone) at 10.0 µM in the Eurofins Panlabs Safety Screen; conditions: Compound concentration 10.0 uM
[19] = target: T2, Alpha-2C adrenergic receptor (Homo sapiens) (UniProt P18825); assay: Inhibition of Adrenergic alpha2C at 10.0 µM in the Eurofins Panlabs Safety Screen; conditions: Compound concentration 10.0 uM
T2 sequence (whole entry): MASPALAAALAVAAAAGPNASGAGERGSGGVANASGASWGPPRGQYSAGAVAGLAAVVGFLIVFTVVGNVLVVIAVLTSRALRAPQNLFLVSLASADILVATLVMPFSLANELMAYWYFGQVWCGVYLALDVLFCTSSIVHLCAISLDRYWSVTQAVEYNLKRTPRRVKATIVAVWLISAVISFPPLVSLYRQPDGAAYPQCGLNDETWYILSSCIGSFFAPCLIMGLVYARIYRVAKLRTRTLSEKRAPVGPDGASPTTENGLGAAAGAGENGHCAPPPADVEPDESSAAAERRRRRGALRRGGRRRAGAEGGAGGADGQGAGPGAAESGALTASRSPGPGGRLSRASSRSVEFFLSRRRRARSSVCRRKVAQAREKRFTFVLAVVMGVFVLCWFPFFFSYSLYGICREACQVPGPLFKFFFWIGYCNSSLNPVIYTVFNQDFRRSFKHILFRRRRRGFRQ

[20] = target: Glutamate receptor ionotropic, kainate 2 (Homo sapiens) (UniProt Q13002); assay: Inhibition of Glutamate, Kainate at 10.0 µM in the Eurofins Panlabs Safety Screen; conditions: Rattus norvegicus; Compound concentration 10.0 uM
Histamine H3 receptor = Histamine H3 receptor (Homo sapiens, UniProt Q9Y5N1); assay: Inhibition of Histamine H3 at 10.0 µM in the Eurofins Panlabs Safety Screen; conditions: Compound concentration 10.0 uM

Chain of Muscarinic acetylcholine receptor M3 (P20309 whole entry): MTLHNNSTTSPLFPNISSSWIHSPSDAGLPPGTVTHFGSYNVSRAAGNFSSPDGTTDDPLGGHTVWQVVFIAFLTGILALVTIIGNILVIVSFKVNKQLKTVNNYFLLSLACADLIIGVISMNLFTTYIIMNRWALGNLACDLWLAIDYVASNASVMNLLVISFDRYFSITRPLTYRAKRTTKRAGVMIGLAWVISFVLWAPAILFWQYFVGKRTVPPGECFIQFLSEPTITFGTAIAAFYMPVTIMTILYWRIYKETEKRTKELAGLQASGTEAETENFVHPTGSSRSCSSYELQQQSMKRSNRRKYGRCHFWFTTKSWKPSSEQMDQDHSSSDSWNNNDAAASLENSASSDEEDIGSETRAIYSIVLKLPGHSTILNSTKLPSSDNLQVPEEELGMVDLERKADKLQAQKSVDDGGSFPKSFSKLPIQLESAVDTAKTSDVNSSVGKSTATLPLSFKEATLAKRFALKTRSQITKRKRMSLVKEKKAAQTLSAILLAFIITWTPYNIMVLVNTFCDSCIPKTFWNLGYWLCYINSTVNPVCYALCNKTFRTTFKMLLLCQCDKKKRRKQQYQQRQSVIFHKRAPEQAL
Chain of Sodium-dependent noradrenaline transporter (Homo sapiens) (P23975 whole entry): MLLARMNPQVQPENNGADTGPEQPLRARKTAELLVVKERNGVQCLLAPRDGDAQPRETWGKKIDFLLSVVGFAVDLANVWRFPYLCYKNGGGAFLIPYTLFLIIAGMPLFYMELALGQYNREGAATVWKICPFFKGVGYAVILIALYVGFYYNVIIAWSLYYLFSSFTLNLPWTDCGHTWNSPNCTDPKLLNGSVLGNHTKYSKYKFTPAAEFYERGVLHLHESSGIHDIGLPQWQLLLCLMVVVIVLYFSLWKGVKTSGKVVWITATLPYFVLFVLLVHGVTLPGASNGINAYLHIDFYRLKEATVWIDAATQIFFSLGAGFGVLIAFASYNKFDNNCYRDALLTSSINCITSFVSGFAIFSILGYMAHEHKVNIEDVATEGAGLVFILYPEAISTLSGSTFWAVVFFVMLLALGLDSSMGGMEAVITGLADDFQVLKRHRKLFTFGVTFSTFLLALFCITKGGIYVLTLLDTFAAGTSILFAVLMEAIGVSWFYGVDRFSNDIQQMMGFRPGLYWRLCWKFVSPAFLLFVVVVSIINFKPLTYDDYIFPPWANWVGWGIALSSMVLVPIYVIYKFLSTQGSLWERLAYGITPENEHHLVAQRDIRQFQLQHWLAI
Chain of 5-hydroxytryptamine receptor 2A (Homo sapiens) (P28223 whole entry): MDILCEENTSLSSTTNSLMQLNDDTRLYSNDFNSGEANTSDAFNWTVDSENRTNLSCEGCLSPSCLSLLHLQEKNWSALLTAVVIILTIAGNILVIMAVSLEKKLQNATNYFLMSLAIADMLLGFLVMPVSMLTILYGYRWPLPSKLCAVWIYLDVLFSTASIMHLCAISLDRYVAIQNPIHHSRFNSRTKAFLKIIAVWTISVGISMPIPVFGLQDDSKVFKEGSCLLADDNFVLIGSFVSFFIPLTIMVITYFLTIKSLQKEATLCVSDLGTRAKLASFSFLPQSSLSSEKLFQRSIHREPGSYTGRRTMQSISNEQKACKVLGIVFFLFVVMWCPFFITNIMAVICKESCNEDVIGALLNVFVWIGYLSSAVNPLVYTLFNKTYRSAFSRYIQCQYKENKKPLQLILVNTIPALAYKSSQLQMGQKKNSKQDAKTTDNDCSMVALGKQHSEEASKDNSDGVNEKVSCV
Chain of Sigma non-opioid intracellular receptor 1 (Homo sapiens) (Q99720 whole entry): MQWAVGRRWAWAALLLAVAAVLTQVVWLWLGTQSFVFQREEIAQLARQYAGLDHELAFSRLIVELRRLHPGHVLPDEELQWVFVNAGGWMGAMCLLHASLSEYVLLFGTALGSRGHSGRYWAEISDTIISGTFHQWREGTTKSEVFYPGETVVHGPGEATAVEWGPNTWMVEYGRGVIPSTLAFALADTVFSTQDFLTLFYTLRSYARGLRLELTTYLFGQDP
Chain of D(2) dopamine receptor (Homo sapiens) (P14416 whole entry): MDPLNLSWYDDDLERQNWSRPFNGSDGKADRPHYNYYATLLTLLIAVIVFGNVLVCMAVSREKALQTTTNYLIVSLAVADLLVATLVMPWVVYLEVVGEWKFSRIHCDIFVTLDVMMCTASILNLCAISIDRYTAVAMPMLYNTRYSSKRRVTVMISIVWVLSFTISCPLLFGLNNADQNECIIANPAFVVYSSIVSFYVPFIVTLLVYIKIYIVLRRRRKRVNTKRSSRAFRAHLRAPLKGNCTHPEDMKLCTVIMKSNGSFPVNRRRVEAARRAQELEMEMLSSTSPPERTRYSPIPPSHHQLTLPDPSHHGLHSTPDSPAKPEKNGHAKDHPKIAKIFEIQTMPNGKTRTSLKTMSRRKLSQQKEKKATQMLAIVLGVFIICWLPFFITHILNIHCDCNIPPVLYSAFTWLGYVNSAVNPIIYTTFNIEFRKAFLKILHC
Chain of D(1A) dopamine receptor (Homo sapiens) (P21728 whole entry): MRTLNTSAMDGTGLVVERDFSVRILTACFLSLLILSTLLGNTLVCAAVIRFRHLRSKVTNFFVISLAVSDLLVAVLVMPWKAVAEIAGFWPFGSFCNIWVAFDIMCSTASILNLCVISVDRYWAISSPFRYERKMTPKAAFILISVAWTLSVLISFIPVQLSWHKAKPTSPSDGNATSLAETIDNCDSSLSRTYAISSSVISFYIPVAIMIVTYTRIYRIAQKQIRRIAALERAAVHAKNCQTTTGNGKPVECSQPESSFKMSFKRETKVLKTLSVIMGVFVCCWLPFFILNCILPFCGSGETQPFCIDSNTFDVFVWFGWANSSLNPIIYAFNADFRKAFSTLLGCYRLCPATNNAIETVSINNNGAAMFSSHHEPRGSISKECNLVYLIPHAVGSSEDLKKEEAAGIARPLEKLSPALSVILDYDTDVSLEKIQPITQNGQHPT
Chain of Glutamate receptor ionotropic, kainate 2 (Homo sapiens) (Q13002 whole entry): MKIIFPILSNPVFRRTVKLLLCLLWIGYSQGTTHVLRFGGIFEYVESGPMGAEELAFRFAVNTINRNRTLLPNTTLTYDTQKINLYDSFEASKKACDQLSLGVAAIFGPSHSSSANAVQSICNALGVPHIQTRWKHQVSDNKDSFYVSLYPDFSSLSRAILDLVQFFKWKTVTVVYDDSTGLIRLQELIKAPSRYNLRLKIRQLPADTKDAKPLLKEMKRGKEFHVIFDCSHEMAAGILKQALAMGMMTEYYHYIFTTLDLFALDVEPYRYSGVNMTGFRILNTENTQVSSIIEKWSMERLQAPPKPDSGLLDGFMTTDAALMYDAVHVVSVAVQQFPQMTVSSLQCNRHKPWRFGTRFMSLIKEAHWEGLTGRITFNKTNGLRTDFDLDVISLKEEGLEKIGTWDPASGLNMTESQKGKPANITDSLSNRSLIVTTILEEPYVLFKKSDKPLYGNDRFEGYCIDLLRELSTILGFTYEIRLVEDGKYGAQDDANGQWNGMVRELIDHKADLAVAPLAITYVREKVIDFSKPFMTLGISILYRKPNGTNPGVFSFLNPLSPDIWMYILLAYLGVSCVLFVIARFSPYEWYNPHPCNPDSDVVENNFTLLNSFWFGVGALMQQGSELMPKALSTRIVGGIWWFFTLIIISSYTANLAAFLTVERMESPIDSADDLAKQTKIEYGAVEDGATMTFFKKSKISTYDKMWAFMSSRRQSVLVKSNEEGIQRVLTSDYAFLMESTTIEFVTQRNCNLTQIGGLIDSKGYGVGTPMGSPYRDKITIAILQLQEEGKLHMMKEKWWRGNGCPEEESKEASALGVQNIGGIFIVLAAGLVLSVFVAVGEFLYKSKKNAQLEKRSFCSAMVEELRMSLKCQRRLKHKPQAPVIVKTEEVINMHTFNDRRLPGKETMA
Chain of Glutamate receptor 2 (Homo sapiens) (P42262 whole entry): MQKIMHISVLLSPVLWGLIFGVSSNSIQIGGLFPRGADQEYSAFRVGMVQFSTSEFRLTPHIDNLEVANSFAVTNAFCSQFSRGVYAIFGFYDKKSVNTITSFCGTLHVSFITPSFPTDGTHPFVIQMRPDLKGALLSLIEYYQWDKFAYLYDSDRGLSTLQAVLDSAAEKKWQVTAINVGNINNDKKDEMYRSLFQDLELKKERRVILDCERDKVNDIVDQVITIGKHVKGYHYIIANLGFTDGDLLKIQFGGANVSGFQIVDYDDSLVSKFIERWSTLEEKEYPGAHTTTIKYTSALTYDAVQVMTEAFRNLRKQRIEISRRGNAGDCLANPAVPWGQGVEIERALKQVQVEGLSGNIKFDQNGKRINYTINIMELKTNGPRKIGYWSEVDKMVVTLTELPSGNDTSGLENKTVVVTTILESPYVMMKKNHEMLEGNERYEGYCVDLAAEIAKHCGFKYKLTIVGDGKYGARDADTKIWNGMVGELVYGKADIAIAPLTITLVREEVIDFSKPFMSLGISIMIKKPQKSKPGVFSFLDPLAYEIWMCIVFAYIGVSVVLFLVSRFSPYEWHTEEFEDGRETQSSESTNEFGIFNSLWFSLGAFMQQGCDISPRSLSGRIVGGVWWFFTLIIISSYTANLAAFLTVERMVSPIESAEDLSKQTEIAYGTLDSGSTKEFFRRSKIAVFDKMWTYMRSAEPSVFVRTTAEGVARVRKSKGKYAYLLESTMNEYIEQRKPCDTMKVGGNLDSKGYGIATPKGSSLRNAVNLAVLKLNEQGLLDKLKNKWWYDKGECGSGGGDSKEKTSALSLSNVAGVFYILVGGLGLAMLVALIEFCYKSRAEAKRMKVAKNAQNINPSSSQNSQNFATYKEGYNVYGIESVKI
Chain of Cannabinoid receptor 2 (Homo sapiens) (P34972 whole entry): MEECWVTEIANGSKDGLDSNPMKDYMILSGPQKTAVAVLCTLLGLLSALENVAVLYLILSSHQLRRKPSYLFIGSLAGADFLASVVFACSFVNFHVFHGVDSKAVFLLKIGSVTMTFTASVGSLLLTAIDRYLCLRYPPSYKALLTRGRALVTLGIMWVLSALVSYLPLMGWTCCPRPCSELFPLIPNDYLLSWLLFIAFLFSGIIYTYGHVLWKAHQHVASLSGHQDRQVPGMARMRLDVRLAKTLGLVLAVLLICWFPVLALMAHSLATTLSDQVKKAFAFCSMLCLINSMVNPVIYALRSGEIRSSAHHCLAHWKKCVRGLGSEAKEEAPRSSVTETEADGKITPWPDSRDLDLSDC

Row | SMILES | inhibition [1] | inhibition [2] | inhibition [3] | inhibition [4] | inhibition [5] | inhibition [6] | inhibition [7] | inhibition [8] | Ki ([9]; read-out: Ki) | Ki ([9]; read-out: pKi (converted)) | inhibition [10] | inhibition [11] | inhibition [12] | inhibition [13] | inhibition [14] | inhibition [15] | inhibition [16] | inhibition [17] | inhibition [18] | inhibition [19] | other results
1 | O=C1NCCCC1N1Cc2cc(C3CCN(C(=O)CCCCCN4CCC(c5ccc(Oc6nn7cnnc7c7c6CCCC7)cc5)CC4)CC3)ccc2C1=O (centres undefined) | 8.56% | 4.02% | -5% | 21.7% | -4% | 21% | 12% | 28.4% | 1890 nM | 1860 nM | 19% | 39% | 3% | 36% | -3% | 15% | 16.7% | 57% | -2% | 62% | inhibition [20]: 1%; inhibition (Histamine H3 receptor): 85%
2 | O=C1CCC(N2Cc3cc(C4CCN(C(=O)CCCCCN5CCC(c6ccc(Oc7nn8cnnc8c8c7CCCC8)cc6)CC5)CC4)ccc3C2=O)C(=O)N1 (centres undefined) | 5.21% | 11.7% | 2% | 20.9% | 9% | 18.6% | 14% | 28.9% | 2260 nM | 2090 nM | 24% | 35% | 0% | 32% | 0% | 10% | 13.9% | 70% | -6% | 79% | inhibition [20]: -2%; inhibition (Histamine H3 receptor): 81%

Reference: ChEMBL document CHEMBL5463725, “Data for DCP probe BAY-277” (2023)
